Measurements reported in ChEMBL document CHEMBL4138123, “Design, synthesis and biological evaluation of novel pyrazolochalcones as potential modulators of PI3K/Akt/mTOR pathway and inducers of apoptosis in breast cancer cells” (Eur J Med Chem, 2017).

What was measured:
Assay type in all cases: functional
PC-3 = test: Cytotoxicity against human PC3 cells assessed as cell growth at 0.1 uM after 48 hrs by sulforhodamine B assay relative to control; settings: PC-3, 48 h, read-out: Activity
M14 = test: Cytotoxicity against human M14 cells assessed as cell growth at 0.01 uM after 48 hrs by sulforhodamine B assay relative to control; settings: M14, 48 h, read-out: Activity
SK-MEL-5 [1] = test: Cytotoxicity against human SK-MEL-5 cells assessed as cell growth at 1 uM after 48 hrs by sulforhodamine B assay relative to control; settings: SK-MEL-5, 48 h, read-out: Activity
SW-620 [2] = test: Cytotoxicity against human SW620 cells assessed as cell growth at 10 uM after 48 hrs by sulforhodamine B assay relative to control; settings: SW-620, 48 h, read-out: Activity
SNB-19 = test: Cytotoxicity against human SNB19 cells assessed as growth inhibition after 48 hrs by sulforhodamine B assay; settings: SNB-19, 48 h; for CC50: read-out: LC50 (the source's name)
NCI-H23 [3] = test: Cytotoxicity against human NCI-H23 cells assessed as cell growth at 0.1 uM after 48 hrs by sulforhodamine B assay relative to control; settings: NCI-H23, 48 h, read-out: Activity
HCT-15 = test: Cytotoxicity against human HCT15 cells assessed as cell growth at 10 uM after 48 hrs by sulforhodamine B assay relative to control; settings: HCT-15, 48 h, read-out: Activity
SN12C = test: Cytotoxicity against human SN12C cells assessed as cell growth at 100 uM after 48 hrs by sulforhodamine B assay relative to control; settings: read-out: Activity
MDA-MB-231 = test: Cytotoxicity against human MDA-MB-231 cells assessed as cell growth at 10 uM after 48 hrs by sulforhodamine B assay relative to control; settings: MDA-MB-231, 48 h, read-out: Activity
CCRF-CEM = test: Cytotoxicity against human CCRF-CEM cells assessed as cell growth at 10 uM after 48 hrs by sulforhodamine B assay relative to control; settings: read-out: Activity
SW-620 [4] = test: Cytotoxicity against human SW620 cells assessed as cell growth at 0.1 uM after 48 hrs by sulforhodamine B assay relative to control; settings: SW-620, 48 h, read-out: Activity
RPMI-8226 = test: Cytotoxicity against human RPMI8226 cells assessed as growth inhibition after 48 hrs by sulforhodamine B assay; settings: RPMI-8226, 48 h
ACHN [5] = test: Cytotoxicity against human ACHN cells assessed as cell growth at 1 uM after 48 hrs by sulforhodamine B assay relative to control; settings: read-out: Activity
SF-268 = test: Cytotoxicity against human SF268 cells assessed as cell growth at 1 uM after 48 hrs by sulforhodamine B assay relative to control; settings: SF-268, 48 h, read-out: Activity
K562 = test: Cytotoxicity against human K562 cells assessed as cell growth at 0.1 uM after 48 hrs by sulforhodamine B assay relative to control; settings: K562, 48 h, read-out: Activity
ACHN [6] = test: Cytotoxicity against human ACHN cells assessed as cell growth at 10 uM after 48 hrs by sulforhodamine B assay relative to control; settings: read-out: Activity
UACC-62 = test: Cytotoxicity against human UACC62 cells assessed as cell growth at 10 uM after 48 hrs by sulforhodamine B assay relative to control; settings: UACC-62, 48 h, read-out: Activity
NCI-H23 [7] = test: Cytotoxicity against human NCI-H23 cells assessed as cell growth at 100 uM after 48 hrs by sulforhodamine B assay relative to control; settings: NCI-H23, 48 h, read-out: Activity
A549 [8] = test: Cytotoxicity against human A549/ATCC cells assessed as cell growth at 100 uM after 48 hrs by sulforhodamine B assay relative to control; settings: A549, 48 h, read-out: Activity
OVCAR-4 = test: Cytotoxicity against human OVCAR4 cells assessed as cell growth at 1 uM after 48 hrs by sulforhodamine B assay relative to control; settings: OVCAR-4, 48 h, read-out: Activity
COLO 205 [9] = test: Cytotoxicity against human COLO205 cells assessed as cell growth at 0.1 uM after 48 hrs by sulforhodamine B assay relative to control; settings: COLO 205, 48 h, read-out: Activity
MDA-MB-468 = test: Cytotoxicity against human MDA-MB-468 cells assessed as cell growth at 10 uM after 48 hrs by sulforhodamine B assay relative to control; settings: MDA-MB-468, 48 h, read-out: Activity
DU-145 = test: Cytotoxicity against human DU145 cells assessed as cell growth at 0.01 uM after 48 hrs by sulforhodamine B assay relative to control; settings: DU-145, 48 h, read-out: Activity
COLO 205 [10] = test: Cytotoxicity against human COLO205 cells assessed as cell growth at 10 uM after 48 hrs by sulforhodamine B assay relative to control; settings: COLO 205, 48 h, read-out: Activity
SK-MEL-5 [11] = test: Cytotoxicity against human SK-MEL-5 cells assessed as growth inhibition after 48 hrs by sulforhodamine B assay; settings: SK-MEL-5, 48 h
A549 [12] = test: Cytotoxicity against human A549/ATCC cells assessed as cell growth at 10 uM after 48 hrs by sulforhodamine B assay relative to control; settings: A549, 48 h, read-out: Activity
NCI-H322M = test: Cytotoxicity against human NCI-H322M cells assessed as cell growth at 0.01 uM after 48 hrs by sulforhodamine B assay relative to control; settings: read-out: Activity
HL-60(TB) = test: Cytotoxicity against human HL-60(TB) cells assessed as cell growth at 100 uM after 48 hrs by sulforhodamine B assay relative to control; settings: HL-60, 48 h, read-out: Activity
HCT-116 = test: Cytotoxicity against human HCT116 cells assessed as cell growth at 10 uM after 48 hrs by sulforhodamine B assay relative to control; settings: HCT-116, 48 h, read-out: Activity
BT-549 = test: Cytotoxicity against human BT549 cells assessed as cell growth at 0.1 uM after 48 hrs by sulforhodamine B assay relative to control; settings: BT-549, 48 h, read-out: Activity
NCI-H522 [13] = test: Cytotoxicity against human NCI-H522 cells assessed as cell growth at 1 uM after 48 hrs by sulforhodamine B assay relative to control; settings: NCI-H522, 48 h, read-out: Activity
NCI-H23 [14] = test: Cytotoxicity against human NCI-H23 cells assessed as cell growth at 10 uM after 48 hrs by sulforhodamine B assay relative to control; settings: NCI-H23, 48 h, read-out: Activity
SK-MEL-5 [15] = test: Cytotoxicity against human SK-MEL-5 cells assessed as cell growth at 0.1 uM after 48 hrs by sulforhodamine B assay relative to control; settings: SK-MEL-5, 48 h, read-out: Activity
NCI-H522 [16] = test: Cytotoxicity against human NCI-H522 cells assessed as cell growth at 0.01 uM after 48 hrs by sulforhodamine B assay relative to control; settings: NCI-H522, 48 h, read-out: Activity
NCI-H460 = test: Cytotoxicity against human NCI-H460 cells assessed as cell growth at 100 uM after 48 hrs by sulforhodamine B assay relative to control; settings: NCI-H460, 48 h, read-out: Activity
KM12 = test: Cytotoxicity against human KM12 cells assessed as cell growth at 0.01 uM after 48 hrs by sulforhodamine B assay relative to control; settings: KM12, 48 h, read-out: Activity

## COc1ccc(-c2cc(/C=C/C(=O)c3ccc(N)cc3)[nH]n2)cc1
PC-3
  growth at 0.1 µM: 93%
M14
  growth at 0.01 µM: 102%
SK-MEL-5 [1]
  growth at 1 µM: 90%
SW-620 [2]
  growth at 10 µM: -26%
SNB-19
  GI50: 2290 nM
  TGI: 11.6 µM
  CC50: 44.3 µM
NCI-H23 [3]
  growth at 0.1 µM: 94%
HCT-15
  growth at 10 µM: -40%
SN12C
  growth at 100 µM: -78%
MDA-MB-231
  growth at 10 µM: -7%
CCRF-CEM
  growth at 10 µM: -27%
SW-620 [4]
  growth at 0.1 µM: 101%
RPMI-8226
  GI50: 600 nM
  LC50: 29.4 µM
  TGI: 3220 nM
ACHN [5]
  growth at 1 µM: 71%
SF-268
  growth at 1 µM: 78%
K562
  growth at 0.1 µM: 95%
ACHN [6]
  growth at 10 µM: 2%
UACC-62
  growth at 10 µM: -89%
NCI-H23 [7]
  growth at 100 µM: -62%
A549 [8]
  growth at 100 µM: -75%
OVCAR-4
  growth at 1 µM: 52%
COLO 205 [9]
  growth at 0.1 µM: 96%
MDA-MB-468
  growth at 10 µM: -62%
DU-145
  growth at 0.01 µM: 104%
COLO 205 [10]
  growth at 10 µM: -86%
SK-MEL-5 [11]
  GI50: 2710 nM
  LC50 (concentration killing 50% of cells): 30.4 µM
  TGI: 9.25 µM
A549 [12]
  growth at 10 µM: 1%
NCI-H322M
  growth at 0.01 µM: 95%
HL-60(TB)
  growth at 100 µM: -47%
HCT-116
  growth at 10 µM: -53%
BT-549
  growth at 0.1 µM: 96%
NCI-H522 [13]
  growth at 1 µM: 61%
NCI-H23 [14]
  growth at 10 µM: 8%
SK-MEL-5 [15]
  growth at 0.1 µM: 90%
NCI-H522 [16]
  growth at 0.01 µM: 84%
NCI-H460
  growth at 100 µM: -70%
KM12
  growth at 0.01 µM: 96%

## COc1ccc(C(=O)/C=C/c2cc(-c3cc(OC)c(OC)c(OC)c3)n[nH]2)cc1
PC-3
  growth at 0.1 µM: 95%
M14
  growth at 0.01 µM: 100%
SK-MEL-5 [1]
  growth at 1 µM: 93%
SW-620 [2]
  growth at 10 µM: -69%
SNB-19
  TGI: 3.03 µM
NCI-H23 [3]
  growth at 0.1 µM: 92%
HCT-15
  growth at 10 µM: -41%
SN12C
  growth at 100 µM: 7%
MDA-MB-231
  growth at 10 µM: -33%
CCRF-CEM
  growth at 10 µM: -19%
SW-620 [4]
  growth at 0.1 µM: 97%
RPMI-8226
  LC50: > 100 µM
  TGI: 2490 nM
ACHN [5]
  growth at 1 µM: 105%
SF-268
  growth at 1 µM: 87%
K562
  growth at 0.1 µM: 102%
ACHN [6]
  growth at 10 µM: -83%
UACC-62
  growth at 10 µM: -74%
NCI-H23 [7]
  growth at 100 µM: -23%
A549 [8]
  growth at 100 µM: 1%
OVCAR-4
  growth at 1 µM: 80%
COLO 205 [9]
  growth at 0.1 µM: 101%
MDA-MB-468
  growth at 10 µM: -92%
DU-145
  growth at 0.01 µM: 102%
COLO 205 [10]
  growth at 10 µM: -90%
SK-MEL-5 [11]
  LC50 (concentration killing 50% of cells): 6.1 µM
  TGI: 3.24 µM
A549 [12]
  growth at 10 µM: -15%
NCI-H322M
  growth at 0.01 µM: 92%
HL-60(TB)
  growth at 100 µM: -31%
HCT-116
  growth at 10 µM: -22%
BT-549
  growth at 0.1 µM: 97%
NCI-H522 [13]
  growth at 1 µM: 75%
NCI-H23 [14]
  growth at 10 µM: 2%
SK-MEL-5 [15]
  growth at 0.1 µM: 99%
NCI-H522 [16]
  growth at 0.01 µM: 83%
NCI-H460
  growth at 100 µM: -62%
KM12
  growth at 0.01 µM: 99%

## COc1ccc(-c2cc(/C=C/C(=O)c3ccc(OC)c(OC)c3)[nH]n2)cc1
PC-3
  growth at 0.1 µM: 91%
M14
  growth at 0.01 µM: 101%
SK-MEL-5 [1]
  growth at 1 µM: 88%
SW-620 [2]
  growth at 10 µM: -52%
SNB-19
  GI50: 1880 nM
  TGI: 5.28 µM
  CC50: 19.6 µM
NCI-H23 [3]
  growth at 0.1 µM: 101%
HCT-15
  growth at 10 µM: -53%
SN12C
  growth at 100 µM: -86%
MDA-MB-231
  growth at 10 µM: -17%
CCRF-CEM
  growth at 10 µM: -39%
SW-620 [4]
  growth at 0.1 µM: 99%
RPMI-8226
  GI50: 320 nM
  LC50: 8.16 µM
  TGI: 1330 nM
ACHN [5]
  growth at 1 µM: 82%
SF-268
  growth at 1 µM: 86%
K562
  growth at 0.1 µM: 108%
ACHN [6]
  growth at 10 µM: -58%
UACC-62
  growth at 10 µM: -77%
NCI-H23 [7]
  growth at 100 µM: -73%
A549 [8]
  growth at 100 µM: -45%
OVCAR-4
  growth at 1 µM: 39%
COLO 205 [9]
  growth at 0.1 µM: 104%
MDA-MB-468
  growth at 10 µM: -69%
DU-145
  growth at 0.01 µM: 104%
COLO 205 [10]
  growth at 10 µM: -89%
SK-MEL-5 [11]
  GI50: 1770 nM
  LC50 (concentration killing 50% of cells): 7.83 µM
  TGI: 3.72 µM
A549 [12]
  growth at 10 µM: -23%
NCI-H322M
  growth at 0.01 µM: 94%
HL-60(TB)
  growth at 100 µM: -43%
HCT-116
  growth at 10 µM: -78%
BT-549
  growth at 0.1 µM: 105%
NCI-H522 [13]
  growth at 1 µM: 11%
NCI-H23 [14]
  growth at 10 µM: -24%
SK-MEL-5 [15]
  growth at 0.1 µM: 93%
NCI-H522 [16]
  growth at 0.01 µM: 102%
NCI-H460
  growth at 100 µM: -63%
KM12
  growth at 0.01 µM: 105%
